Experimental data: US20110081428A1, “Use of thioflavin-like compounds to increase life span and/or health span” (priority 2009, published 2011)

How the values were obtained:
Type in all cases: in vivo, Caenorhabditis elegans
[1] = test system: CL4176 (Aβ3-42 expressed in muscle); experiment: Worm paralysis assay, Aβ model; conditions: CL4176, 25° C.; 50 μM ThT, 100 μM curcumin
Experimental: (§1) Scoring for paralysis was initiated 2 and 8 days after temperature upshift for CL4176 and AM140, respectively. […] For sensitivity to EtOH or levamisole resistance, CW152 gas-1 (fc21) X and ZZ26 unc-63(x26)I worms were picked into 0.4 M EtOH or 50 μM levamisole, respectively, equilibrated for 5 min, and scored for paralysis as described above. Treated and untreated worms were compared with an unpaired t-test (implemented in Prism 4, Graphpad™ Software, Inc., San Diego, Calif., USA).

[2] = test system: AM140 (rmIs132[P(unc-54) Q35::YFP]); experiment: Worm paralysis assay, polyQ model; conditions: AM140, 25° C., 8 days; 50 μM ThT, 100 μM curcumin
Experimental: as §1

[3] = test system: HE250 [unc-52(e669su250)II]; experiment: Worm paralysis assay, unc-52 ts mutant; conditions: HE250, 25° C., 36 h; 50 μM ThT, 100 μM curcumin, 100 μM rifampicin
Experimental: as §1

[4] = test system: DAF-16 fusion protein [TJ356 daf-16::daf-16-gfp]; experiment: DAF-16::GFP localization; conditions: ThT or curcumin treatment, no heat shock
Experimental: For fluorescent microscopy, TJ356 zIs356 IV [daf-16::daf-16-gfp+rol-6] or CF2189 Is001(skn-1::gfp+rol-6) were paralyzed with 1 mM levamisole mounted on 1% agarose pads and imaged using Olympus BX51 (60× objective) and HCImage software (Hamamatsu). For immunofluorescence, N2, […], CB1157 unc-54(e1157) or CL4176 dvIs27 [myo-3::Aβ(3 to 42)-let 3′UTR(pAF29); pRF4 (rol-6(su1006))] worms were treated for 24-36 h with or without 50 μM ThT at 25° C. After this period the worms were collected, rinsed, and fixed in 4% paraformaldehyde overnight. […] Paramyosin and perlecans were detected with primary monoclonal antibodies 5-23 and MH3 (developed by Henry Epstein and Robert H. Waterston and obtained from the Developmental Studies Hybridoma Bank developed under the auspices of the NICHD and maintained by The University of Iowa, Department of Biology, Iowa City, Iowa 52242) and AlexaFluor 633 goat anti-mouse (Molecular Probes) as secondary antibody. Soluble oligomers and Aβ peptide were detected with anti polyclonal All (Invitrogen) and 6E10 monoclonal (Covance) primary antibodies, respectively, with AlexaFluor 568 goat anti-rabbit and AlexaFluor 488 goat anti-mouse (Molecular Probes) as secondary antibodies. Images were processed and quantified by using Image Analyst MK II (Novato, Calif.).

[5] = test system: HSP-16.2; experiment: Western blot HSP-16.2; conditions: 50 μM ThT, 100 μM curcumin, 4 and 7 days of treatment
Experimental: Peptide corresponding to amino acids 110-145 ([…]; SEQ ID NO:1) of HSP-16.2 was used to commercially synthesize antiserum (Invitrogen). Briefly, KLH-peptide was emulsified by mixing with an equal volume of Freund's adjuvant and injected into three subcutaneous dorsal sites for a total of 0.1 mg of peptide for immunization. The animals (rabbits) were bled, the blood allowed to clot and the serum collected by centrifugation. Monoclonal HSP-70 and Polyclonal HSF-1 primary antibodies were from stressgen (N27F3-4 and SPA-901, respectively).
Worms were transferred to siliconized eppendorf tubes, washed once in S-basal and frozen in liquid N2. Standard SDS-PAGE was performed using (4-12%) NOVEX gels and IVIES running buffer. Following transfer PVDF (BioRad) membranes were incubated with antisera (1:10000) or primary antibodies (1:1000) diluted in blocking buffer and then with secondary, goat anti-rabbit IgG antibody/horseradish peroxidase conjugate (Pierce), diluted 1:25000. Detection was undertaken with chemiluminescent reagents (SuperSignal, Pierce) and standard autoradiography.

**Q.** What does the source list for `COc1cc(/C=C/C(=O)CC(=O)/C=C/c2ccc(O)c(OC)c2)ccc1O` [curcumin, reference compound]?
**A.** proportion of paralyzed worms [1]: significantly decrease the proportion of paralyzed worms; proportion of paralyzed worms [2]: significantly decrease the proportion of paralyzed worms; paralysis phenotype of unc-52 mutant [3]: Protection; DAF-16::GFP localization [4]: does not produce DAF-16::GFP relocalization; HSP-16.2 protein levels [5]: increase the HSP-16.2 levels
